We go through one compound from patent US20110306671A1, “AMIDE DERIVATIVES OF ETHACRYNIC ACID” (The Regents of the The University of California, priority 2008, published 2011).

One series has as its target T1, LEF-1 (Homo sapiens, UniProt Q9UJU2).
T1 construct: endogenous in cells; host or cells: primary CLL cells from patients; SW480 cells
The series is described as follows: Immunoprecipitation and immunoblotting with anti-EA antibody: LEF-1. It is filed as binding. The protocol: FIG. 6. EA binds to LEF-1 in primary CLL and SW480 cells. (A) lysates from CLL cells exposed to 10 μM EA for 8 hours or 24 hours were immunoprecipitated with anti-LEF-1 antibody. The immune complexes were analyzed by immunoblotting with anti-LEF-1 and anti-EA antibodies. (B) SW480 cells were treated with indicated amounts of EA for 16 hours. Cell lysates were immunoprecipitated with anti-β-catenin antibody (Santa Cruz Biotechnology, Santa Cruz, Calif.). The immune complexes were analyzed by immunoblotting with anti-EA and anti-β-catenin antibodies. (C) SW480 cells were exposed to 50 μM of EA for 16 hours and cell lysates were immunoprecipitated with anti-β-catenin antibody. The proteins in the immunoprecipitates were resolved by SDS-PAGE, transferred, and probed with indicated antibodies.
A conjugate of EA with Keyhole Limpet Hemocyanin (KLH, Sigma) was prepared by thiolation of KLH with N-succinimidyl S-acetylthioacetate (SATA), followed by allowing the SATA-KLH conjugate to form a Michael adduct with EA, as described in Hermanson (1996). Immunization of rabbits was performed by three 1 mL subcutaneous injections of approximately 0.4 mg EA-KLH conjugates. Complete Freund's adjuvant was used for the first injection. The second and third injections were performed 3 and 6 weeks after the first, using incomplete adjuvant. […]

The conditions of series [1]: continuous i.v. infusion, cited from earlier work.

The structures appear in SMILES notation. Values joined by “and” are separate entries in the source; they are usually repeats but may differ in a detail not shown here. Equal values may be shown once.

T1 sequence (Q9UJU2 whole entry): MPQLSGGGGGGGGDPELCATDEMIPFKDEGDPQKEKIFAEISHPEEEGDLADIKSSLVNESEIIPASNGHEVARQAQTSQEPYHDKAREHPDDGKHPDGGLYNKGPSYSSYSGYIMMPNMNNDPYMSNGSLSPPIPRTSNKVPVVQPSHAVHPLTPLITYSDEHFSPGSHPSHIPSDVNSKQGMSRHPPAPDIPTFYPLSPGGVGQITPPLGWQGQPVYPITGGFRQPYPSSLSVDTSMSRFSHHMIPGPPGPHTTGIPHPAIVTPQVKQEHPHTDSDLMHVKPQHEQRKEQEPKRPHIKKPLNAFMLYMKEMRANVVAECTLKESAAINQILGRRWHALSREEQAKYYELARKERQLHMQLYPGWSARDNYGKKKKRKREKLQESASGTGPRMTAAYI

As to `C=C(CC)C(=O)c1ccc(OCC(=O)O)c(Cl)c1Cl` [Compound 1, Ethacrynic acid], on LEF-1 (CLL lysates, EA 10 μM, 8 hours and 24 hours), the “reaction of immunoprecipitated LEF-1 with anti-EA antibody” value is listed as “reacted strongly with the anti-EA antibody”. Also, the “staining of the LEF-1 band with anti-EA antibody” value on LEF-1 (SW480 cells, 50 μM EA, 16 hours, anti-β-catenin immunoprecipitate) was “stained positive with the anti-EA antibody only in the drug treated samples”. Besides, the “time for which plasma concentrations are sustained” value in series [1] (above 1 μg/ml) is reported as “up to 3 hours”. Also, the sustained plasma concentrations entry in series [1] (listed as EA) is “greater than 1 μg/ml and > 3.3 μM”.
